Experiments:
HUVEC = assay: Antiproliferative activity against human HUVEC cells after 96 hrs by MTT assay; assay type: cell-based
HepG2 = assay: Antiproliferative activity against human HepG2 cells after 96 hrs by MTT assay; assay type: functional, cell-based; settings: HepG2, 96 h
Jurkat = assay: Antiproliferative activity against human Jurkat cells after 96 hrs by MTT assay; assay type: functional, cell-based
NCI-N87 = assay: Antiproliferative activity against human NCI-N87 cells after 96 hrs by MTT assay; assay type: functional, cell-based; settings: NCI-N87, 96 h
HT-1080 = assay: Antiproliferative activity against human HT1080 cells after 96 hrs by MTT assay; assay type: functional, cell-based; settings: HT-1080, 96 h

IC50 (HepG2) [nM] | IC50 (Jurkat) [nM] | IC50 (HT-1080) [nM] | Compound | IC50 (HUVEC) [nM] | IC50 (NCI-N87) [nM]
19 | 37.5 | – | COc1cccc2c1C(=O)c1c(O)c3c(c(O)c1C2=O)C[C@@](O)(C(=O)CO)C[C@@H]3O[C@H]1C[C@H](N)[C@H](O)[C@H](C)O1 [DOXORUBICIN] | 30.3 | 420
– | – | 750 | COc1cc([C@@H]2c3cc4c(cc3[C@@H](O[C@@H]3O[C@@H]5CO[C@@H](C)O[C@H]5[C@H](O)[C@H]3O)[C@H]3COC(=O)[C@H]23)OCO4)cc(OC)c1O [ETOPOSIDE] | – | –
